11 molecules from patent publication US4866176A, “8-Piperazinyl-1,7-naphthyridine derivative having pharmaceutical activity” (SS Pharmaceutical Co., Ltd., priority 1986, dated 1989) can be followed below.

The subject of one experiment is Edema. Kind of experiment: Antiinflammatory effect (carragenin-induced edema of rat foot, oral). Format: in vivo, Wister rats. The settings on record: 30 mg/kg, carragenin 60 min after dosing, foot volume 3 hours thereafter. The method, then: Wister rats (age 6 weeks), 5 of which consisted one group, were fasted for 18 hours and orally given a test compound which was dissolved or suspended in a 0.5% sodium carboxymethylcellulose (CMC-Na). Sixty (60) minutes after administration of the tested compound each rat was subcutaneously given 0.1 ml of 1% carragenin physiological saline at its right plantar, and 3 hours thereafter the volume of its foot (A) was measured. The rate of edematization was determined by the formula [(A-B)/B]×100, in which (A) is the thus-obtained volume of animals foot and (B) denots the corresponding volume before administration of the compound (B).
The rate of edematization of controls which were subcutaneously given 0.1 ml of 1% carragenin physiological saline at their right plantars was also determined in the same manner. The rate of edema inhibition was determined on each of the tested compounds according to the following equation: [formula]
The results are shown in Table 1, in which the compound numbers correspond those of Examples appearing hereinafter in this specification.

The subject of another experiment is heart rate. Kind of experiment: Antiarrhythmic effect (chloroform, mice, ip). Format: in vivo. The settings on record: positive = 1-200 per minute heart rate. The procedure: Mice, age 5 weeks and weighing approximately 25 g, 6 of which consisted one group, were given a test compound which was dissolved in a 0.01 N-0.1 N hydrochloric acid solution (ip). Ten (10) minutes thereafter the mice were put into a sealed container which was filled with chloroform, their chests were incised promptly after confirming the respiratory arrest, and the heart rate was counted. Those with a 1-200 per minute heart rate were judged as positive in their antiarrhythmic effect.

Experiment [1] deals with right and left atrium muscles. Description: Cardiotonic effect (positive inotropic effect on isolated guinea pig atrium muscles). On the set-up: species or system Hartley male guinea pigs. The following applies: Cavia porcellus, 10^-5 g/ml, 32° C, maximum change of contractive force, read-out: Positive Inotropic Effect (% per the value obtained on controls). The method, then: Hearts of Hartley male guinea pigs, weighing 500-800 g, were taken out and their atrium muscles were enucleated in Krebs - hydrogencarbonate solution, to serve the same as samples for the test. The both ends of right and left atrium muscles with a spontaneous beat were fixed by means of Serres fines, and suspended, with their upper and lower portions being fixed, in a bath containing 20 ml of Krebs - hydrogencarbonate solution which was aerated by 95% O2 +5% CO2 at 32° C. Then contractive forces of the spontaneous beat were isometrically measured. After the samples were stabilized, the test compound dissolved in 1 N hydrochloric acid solution and diluted by physiological saline to a concentration of 10^-5 g/ml was charged into the bath. Maximum changes (%) of the contractive force after charging the test compound per the value obtained immediately before the charge were determined. The values obtained, which respresent a positive inotropic effect, were made a standard for the cardiotonic effect.

Turning to `CC(=O)Nc1cc2cccnc2c(N2CCNCC2)n1` [Compound No. 1, 6-acetamido-8-(1-piperazinyl)-1,7-naphthyridine], the “Edema Inhibition Rate (%)” value in the experiment with Edema worked out at 64.8%. Also, the entries for the “Animals exhibited positive antiarrhythmic/Animals tested” value in the experiment on heart rate (12.5 mg/kg) and with heart rate (25.0 mg/kg) were 5/6 and 4/6, respectively.
Regarding `CC(=O)Nc1cc2cccnc2c(N2CCN(C=O)CC2)n1` [compound 2], in the experiment on Edema, the “Edema Inhibition Rate (%)” value is recorded as 35.0%. For the same molecule, the activation at 10 µg/mL in experiment [1] was 35.8%.
`CC(=O)Nc1cc2cccnc2c(N2CCN(C(C)=O)CC2)n1` [compound 3]: the activation at 10 µg/mL in experiment [1] was 35.6%.
As for `CC(=O)Nc1cc2cccnc2c(N2CCN(C(=O)c3ccccc3)CC2)n1` [compound 4], the “Animals exhibited positive antiarrhythmic/Animals tested” value with heart rate (12.5 mg/kg) is listed as 2/6; in the experiment on heart rate (25.0 mg/kg) it was 4/6.
Turning to `CC(=O)Nc1cc2cccnc2c(N2CCN(C(=O)c3ccc([N+](=O)[O-])cc3)CC2)n1` [compound 8, 6-acetamido-8-[4-(p-nitrobenzoyl)-1-piperazinyl]-1,7-naphthyridine], in the experiment with Edema, the “Edema Inhibition Rate (%)” value was determined as 28.6%.
With `COc1ccc(C(=O)N2CCN(c3nc(NC(C)=O)cc4cccnc34)CC2)cc1` [compound 9], the “Edema Inhibition Rate (%)” value with Edema worked out at 30.4%.
Consider `COc1ccc(C(=O)N2CCN(c3nc(NC(C)=O)cc4cccnc34)CC2)cc1OC` [compound 10], for which the activation at 10 µg/mL in experiment [1] stood at 16.7%.
Consider `COc1cc(C(=O)N2CCN(c3nc(NC(C)=O)cc4cccnc34)CC2)cc(OC)c1OC` [compound 11], for which the “Animals exhibited positive antiarrhythmic/Animals tested” value is on record as 1/6 with heart rate (12.5 mg/kg) and 6/6 with heart rate (25.0 mg/kg).
Take `CC(=O)Nc1cc2cccnc2c(N2CCN(c3cccc(Cl)c3)CC2)n1` [compound 15]: the “Animals exhibited positive antiarrhythmic/Animals tested” value in the experiment on heart rate (12.5 mg/kg) and in the experiment on heart rate (25.0 mg/kg) was 4/6 in each case.
As to `CC(=O)Nc1cc2cccnc2c(N2CCN(c3ccc(F)cc3)CC2)n1` [compound 17], the “Animals exhibited positive antiarrhythmic/Animals tested” value with heart rate (12.5 mg/kg) was 3/6; in the experiment with heart rate (25.0 mg/kg) it was 5/6.
Regarding `CC(=O)Nc1cc2cccnc2c(N2CCN(Cc3ccccc3)CC2)n1` [compound 22], the “Edema Inhibition Rate (%)” value with Edema was determined as 57.1%. For the same molecule, the activation at 10 µg/mL in experiment [1] was 16.7%.
